Test results: patent US5189159A, “8a-AZA-8a-homoerythromycin cyclic iminoethers” (Merck & Co., Inc., priority 1992, dated 1993)
≈ marks a conversion by molar mass, not a printed value.

Assays:
[1] = isomerization / stability of 9,12-epoxy isomers; type: physicochemical
Description: As previously noted, Beckmann rearrangement of oxime (III) under anhydrous conditions leads to a product mixture comprised of the 6,9- and 9,12-bridged iminoethers (VI) and (VII). The 9,12-bridged product, which is formed by internal trapping of the intermediate nitrilium species by the hydroxyl group at C-12, is initially isolated as a mixture of major and minor forms that are isomeric about the imino double bond. The initial mixture of isomers equilibrates at room temperature, both in solution or on storing as a crude foam, to approximately a 1:1 mixture of isomers. The first-formed, major isomer can be isolated from the mixture by crystallization from nitromethane solution.
A solution of the mixture of 9,12-epoxy isomers in nitromethane (2 mL) deposited a large, crystalline mass on standing at room temperature for several days. The mixture was diluted with nitromethane (10 mL) and filtered to remove the solid portion, which was washed with nitromethane (2 mL) and dried under high vacuum. The white solid thus obtained (0.9 g) was shown by ^1 H NMR spectroscopy to be the major 9,12-epoxy isomer which is initially formed in the Beckmann rearrangement reaction.

[2] = test system: Staphylococcus epidermidis MB 5414; assay: MIC, liquid turbidimetric microtiter method; type: cell-based; conditions: MB5414, broth media
Description: (§1) The compounds of formula (II) show antibacterial activity against a range of aerobic Gram positive and negative bacteria, as shown in the following Table. The assay employs a liquid turbidimetric microtiter method for determination of the minimum inhibitory concentration (MIC) in broth media. […] The MIC is generally not an absolute value but rather a concentration range that falls within a two-fold dilution limit. Generally twelve two-fold dilutions of the test compound are employed with the initial concentration set at 128 mcg/ml.

Escherichia coli MB 2884 = assay: MIC, liquid turbidimetric microtiter method; type: cell-based; conditions: MB2884, broth media
Description: as §1

[3] = test system: Staphylococcus aureus MB 2865; assay: MIC, liquid turbidimetric microtiter method; type: cell-based; conditions: MB2865, broth media
Description: as §1

[4] = test system: Steptococcus pneumoniae CL 2883; assay: MIC, liquid turbidimetric microtiter method; type: cell-based; conditions: broth media
Description: as §1

[5] = test system: Klebsiella pneumoniae MB 4005; assay: MIC, liquid turbidimetric microtiter method; type: cell-based; conditions: MB4005, broth media
Description: as §1

[6] = test system: Pseudomonas stutzeri MB 1231; assay: MIC, liquid turbidimetric microtiter method; type: cell-based; conditions: Stutzerimonas stutzeri, MB1231, broth media
Description: as §1

Escherichia coli MB 4926 = assay: MIC, liquid turbidimetric microtiter method; type: cell-based; conditions: MB4926, broth media
Description: as §1

[7] = test system: Streptococcus viridans CL 2943; assay: MIC, liquid turbidimetric microtiter method; type: cell-based; conditions: CL2943, broth media
Description: as §1

[8] = test system: Staphylococcus haemolyticus MB 5412; assay: MIC, liquid turbidimetric microtiter method; type: cell-based; conditions: MB5412, broth media
Description: as §1

[9] = test system: Enterococcus faecalis MB 5407; assay: MIC, liquid turbidimetric microtiter method; type: cell-based; conditions: MB5407, broth media
Description: as §1

[10] = test system: Enterococcus faecium MB 5416; assay: MIC, liquid turbidimetric microtiter method; type: cell-based; conditions: MB5416, broth media
Description: as §1

[11] = test system: Streptococcus pyogenes MB 5406; assay: MIC, liquid turbidimetric microtiter method; type: cell-based; conditions: MB5406, broth media
Description: as §1

[12] = test system: Streptococcus agalactiae CL 1343; assay: MIC, liquid turbidimetric microtiter method; type: cell-based; conditions: CL1343, broth media
Description: as §1

[13] = test system: Streptococcus pyogenes MB 2874; assay: MIC, liquid turbidimetric microtiter method; type: cell-based; conditions: MB2874, broth media
Description: as §1

[14] = test system: Yersinia enterocoltica CL 1598; assay: MIC, liquid turbidimetric microtiter method; type: cell-based; conditions: CL1598, broth media
Description: as §1

SMILES	solid state stability [1]	MIC [2] [µg/mL]	MIC (Escherichia coli MB 2884) [µg/mL]	MIC [3] [µg/mL]	MIC [4] [µg/mL]	MIC [5] [µg/mL]	MIC [6] [µg/mL]	MIC (Escherichia coli MB 4926) [µg/mL]	MIC [7] [µg/mL]	MIC [8] [µg/mL]	MIC [9] [µg/mL]	MIC [10] [µg/mL]	MIC [11] [µg/mL]	MIC [12] [µg/mL]	MIC [13] [µg/mL]	MIC [14] [µg/mL]
CC[C@H]1OC(=O)[C@H](C)[C@@H](O[C@H]2C[C@@](C)(OC)[C@@H](O)[C@H](C)O2)[C@H](C)[C@@H](O[C@@H]2O[C@H](C)C[C@H](N(C)C)[C@H]2O)[C@](C)(O)C[C@@H](C)N=C2O[C@@]1(C)[C@H](O)[C@H]2C (single isomer, unassigned; isomer 9) [crystalline isomer, 9-deoxo-12-deoxy-9,12-epoxy-8a,9-didehydro-8a-aza-8a-homoerythromycin A]	stable in the solid state															
CC[C@H]1OC(=O)[C@H](C)[C@@H](O[C@H]2C[C@@](C)(OC)[C@@H](O)[C@H](C)O2)[C@H](C)[C@@H](O[C@@H]2O[C@H](C)C[C@H](N(C)C)[C@H]2O)[C@](C)(O)C[C@@H](C)N=C2O[C@@]1(C)[C@H](O)[C@H]2C [(VII), 9-Deoxo-12-deoxy-9,12-epoxy-8a,9-didehydro-8a-aza-8a-homoerythromycin A]		16 (≈ 21.9 µM)	128 (≈ 175 µM)	16 (≈ 21.9 µM)	4 (≈ 5.47 µM)	> 128	2 (≈ 2.74 µM)	32 (≈ 43.8 µM)	4 (≈ 5.47 µM)	32 (≈ 43.8 µM)	> 128	16 (≈ 21.9 µM)	> 128	4 (≈ 5.47 µM)	2 (≈ 2.74 µM)	
CC[C@H]1OC(=O)[C@H](C)[C@@H](O[C@H]2C[C@@](C)(OC)[C@@H](O)[C@H](C)O2)[C@H](C)[C@@H](O[C@@H]2O[C@H](C)C[C@H](N(C)C)[C@H]2O)[C@@]2(C)C[C@@H](C)N=C(O2)[C@H](C)[C@@H](O)[C@]1(C)O [(VI), 9-Deoxo-6-deoxy-6,9-epoxy-8a,9-didehydro-8a-aza-8a-homoerythromycin A]		32 (≈ 43.8 µM)	128 (≈ 175 µM)	16 (≈ 21.9 µM)	0.5 (≈ 0.684 µM)	> 128	0.5 (≈ 0.684 µM)	8 (≈ 10.9 µM)	16 (≈ 21.9 µM)	8 (≈ 10.9 µM)	32 (≈ 43.8 µM)	8 (≈ 10.9 µM)	128 (≈ 175 µM)	1 (≈ 1.37 µM)	1 (≈ 1.37 µM)	128 (≈ 175 µM)
